According to ChEMBL document CHEMBL1151911, “A microwave-assisted facile regioselective Fischer indole synthesis and antitubercular evaluation of novel 2-aryl-3,4-dihydro-2H-thieno[3,2-b]indoles” (2009):
Values after ≈ are worked out from the molar mass of the structure shown.

What follows are molecules tested on Mycobacterium tuberculosis (assay: Antimycobacterial activity against multi drug-resistant Mycobacterium tuberculosis).
Type: functional

Point of comparison: `Brc1ccccc1C1Cc2[nH]c3ccccc3c2S1` (stereo not given), MIC 3.13 µg/mL (≈ 9.48 µM). Against it:
- Fc1ccc2[nH]c3c(c2c1)SC(c1ccccc1)C3 (stereo not given) — 4-fold higher, 12.5 µg/mL (≈ 46.4 µM)
- Fc1ccc2[nH]c3c(c2c1)SC(c1ccc(Cl)cc1)C3 (stereo not given) — 2-fold lower, 1.56 µg/mL (≈ 5.14 µM)
- Cc1ccc(C2Cc3[nH]c4ccc(F)cc4c3S2)cc1 (stereo not given) — 2-fold lower, 1.56 µg/mL (≈ 5.51 µM)
- Clc1ccc2[nH]c3c(c2c1)SC(c1ccccc1Cl)C3 (stereo not given) — 2-fold lower, 1.56 µg/mL (≈ 4.87 µM)
- CC(C)c1ccc(C2Cc3[nH]c4ccc(Cl)cc4c3S2)cc1 (stereo not given) — 4-fold lower, 0.78 µg/mL (≈ 2.38 µM)
- Fc1ccc2[nH]c3c(c2c1)SC(c1ccccc1Cl)C3 (stereo not given) — 2-fold lower, 1.56 µg/mL (≈ 5.14 µM)
- CC(C)c1ccc(C2Cc3[nH]c4ccc(F)cc4c3S2)cc1 (stereo not given) — 7.8-fold lower, 0.4 µg/mL (≈ 1.28 µM)
- Clc1ccc(C2Cc3[nH]c4ccccc4c3S2)c(Cl)c1 (stereo not given) — 4-fold lower, 0.78 µg/mL (≈ 2.44 µM)
- Fc1ccc(C2Cc3[nH]c4ccc(Cl)cc4c3S2)cc1 (stereo not given) — 4-fold lower, 0.78 µg/mL (≈ 2.57 µM)
- Cc1ccc(C2Cc3[nH]c4ccccc4c3S2)cc1 (stereo not given) — 4-fold higher, 12.5 µg/mL (≈ 47.1 µM)
- Clc1ccc(C2Cc3[nH]c4ccc(Cl)cc4c3S2)c(Cl)c1 (stereo not given) — 7.8-fold lower, 0.4 µg/mL (≈ 1.13 µM)
- Cc1ccc(C2Cc3[nH]c4ccc(Cl)cc4c3S2)cc1 (stereo not given) — 2-fold higher, 6.25 µg/mL (≈ 20.8 µM)
- O=[N+]([O-])c1cccc(C2Cc3[nH]c4ccccc4c3S2)c1 (stereo not given) — 4-fold lower, 0.78 µg/mL (≈ 2.63 µM)
- CC(C)c1ccc(C2Cc3[nH]c4ccccc4c3S2)cc1 (stereo not given) — 7.8-fold lower, 0.4 µg/mL (≈ 1.36 µM)
- Fc1ccc2[nH]c3c(c2c1)SC(c1ccc(Cl)cc1Cl)C3 (stereo not given) — 7.8-fold lower, 0.4 µg/mL (≈ 1.18 µM)
- CC[C@@H](CO)NCCN[C@@H](CC)CO [ETHAMBUTOL] — 4-fold higher, 12.5 µg/mL (≈ 61.2 µM)
- NNC(=O)c1ccncc1 [ISONIAZID] — 2-fold lower, 1.56 µg/mL (≈ 11.4 µM)
- NC(=O)c1cnccn1 [PYRAZINAMIDE] — 16-fold higher, 50 µg/mL (≈ 406 µM)
- CO[C@H]1/C=C/O[C@@]2(C)Oc3c(C)c(O)c4c(O)c(c(/C=N/N5CCN(C)CC5)c(O)c4c3C2=O)NC(=O)/C(C)=C\C=C\[C@H](C)[C@H](O)[C@@H](C)[C@@H](O)[C@@H](C)[C@H](OC(C)=O)[C@@H]1C [RIFAMPIN] — the same, 3.13 µg/mL (≈ 3.8 µM)
